Laboratory results from ChEMBL document CHEMBL5126640, “Sanggenon C Suppresses Tumorigenesis of Gastric Cancer by Blocking ERK-Drp1-Mediated Mitochondrial Fission” (J Nat Prod, 2022).
Activity calls are given as the source filed them. The rule behind the calls is not given here.

What was measured:
AGS [1] = assay: Antiproliferative activity against human AGS cells assessed as reduction in cell growth measured after 24 hrs by CCK8 assay; assay type: functional, cell-based
HGC-27 [2] = assay: Induction of cell cycle arrest in human HGC-27 cells assessed as accumulation of cells at G0/G1 phase at 8 uM incubated for 24 hrs propidium iodide-A staining-based flow cytometric analysis (reference value: 45.21%); assay type: functional
AGS [3] = assay: Induction of cell cycle arrest in human AGS cells assessed as accumulation of cells at G0/G1 phase at 6 uM incubated for 24 hrs propidium iodide staining-based flow cytometric analysis (reference value: 46.51%); assay type: functional
HGC-27 [4] = assay: Induction of apoptosis in human HGC-27 cells assessed as viable cells at 10 uM measured after 24 hrs by AnnexinV-FITC/PI staining based flowcytometry method (reference value: 91.1%); assay type: functional; conditions: read-out: Activity
HGC-27 [5] = assay: Induction of apoptosis in human HGC-27 cells assessed as early apoptotic cells at 6 uM measured after 24 hrs by AnnexinV-FITC/PI staining based flowcytometry method (reference value: 3.3%); assay type: functional
HGC-27 [6] = assay: Induction of apoptosis in human HGC-27 cells assessed as late apoptotic cells at 8 uM measured after 24 hrs by AnnexinV-FITC/PI staining based flowcytometry method (reference value: 5.4%); assay type: functional
AGS [7] = assay: Induction of apoptosis in human AGS cells assessed as viable cells at 10 uM measured after 24 hrs by AnnexinV-FITC/PI staining based flowcytometry method (reference value: 95.2%); assay type: functional; conditions: read-out: Activity
AGS [8] = assay: Induction of apoptosis in human AGS cells assessed as early apoptotic cells at 10 uM measured after 24 hrs by AnnexinV-FITC/PI staining based flowcytometry method (reference value: 1.2%); assay type: functional
HGC-27 [9] = assay: Induction of apoptosis in human HGC-27 cells assessed as increase in cleaved caspase-9 level at 0 to 10 uM by Western blot analysis; assay type: functional, cell-based; conditions: dose 0-10 µM
AGS [10] = assay: Induction of apoptosis in human AGS cells assessed as downregulation of Bcl-2 level at 0 to 10 uM by Western blot analysis; assay type: functional, cell-based; conditions: dose 0-10 µM
HGC-27 [11] = assay: Induction of apoptosis in human HGC-27 cells assessed as late apoptotic cells measured after 24 hrs by AnnexinV-FITC/PI staining based flow cytometry method (reference value: 1.6%); assay type: functional
AGS [12] = assay: Induction of apoptosis in human AGS cells transfected with pcDNA3.1-Drp1 plasmid to overexpress DRP1 assessed as viable cells and measured after 24 hrs by AnnexinV-FITC/PI staining based flow cytometry method (reference value: 95.6 %); assay type: functional
AGS [13] = assay: Induction of apoptosis in human AGS cells transfected with pcDNA3.1-Drp1 plasmid to overexpress DRP1 assessed as necrotic cells and measured after 24 hrs by AnnexinV-FITC/PI staining based flow cytometry method (reference value: 0.2 %); assay type: functional
[14] = Toxicity in nude mouse xenografted with human AGS cells assessed as effect on body weight at 10 to 20 mg/kg, ip administered every other day and monitored every 3 days; assay type: organism-based; conditions: in vivo, 72 h, dose 10-20 mg/kg, time 3 day
[15] = Toxicity in nude mouse xenografted with human AGS cells assessed as effect on lung morphology at 10 to 20 mg/kg, ip administered every other day and monitored every 3 days by Hematoxyin-eosin staining based analysis; assay type: organism-based; conditions: in vivo, 72 h, dose 10-20 mg/kg, time 3 day

SMILES: CC(C)=CCC12Oc3cc(O)ccc3C1(O)Oc1cc(O)c([C@H]3C=C(C)C[C@H](c4ccc(O)cc4O)[C@H]3C(=O)c3ccc(O)cc3O)c(O)c1C2=O (stereo not given in full)
- IC50 (AGS [1]): 9.86 µM
- Activity (HGC-27 [2]): 62.4%
- Activity (AGS [3]): 54.7%
- viability at 10 µM (HGC-27 [4]): 72.4%
- Activity (HGC-27 [5]): 4.2%
- Activity (HGC-27 [6]): 11.1%
- viability at 10 µM (AGS [7]): 81.2%
- Activity (AGS [8]): 3.2%
- Activity (HGC-27 [9]): Active
- Activity (AGS [10]): Active
- Activity (HGC-27 [11]): 3.9%
- Activity (AGS [12]): 90.3%
- Activity (AGS [13]): 0.1%
- Activity [14]: Non-Toxic
- Activity [15]: Non-Toxic
